# Laboratory results published in US7378535B2, “Production of furanones” (Unisearch Limited, A.C.N., priority 1998, dated 2008).
compound,measurement,value
"CC(O)C1=CC(=C(Br)Br)OC1=O (stereo not shown) [Example 7, 5-(Dibromomethylene)-3-(1-hydroxyethyl)-2(5H)-furanone]",melting point,100 °C
